Test results reported in patent US20240254138A1, “TRICYCLIC PYRIMIDINES AS CYCLIN-DEPENDENT KINASE 7 (CDK7) INHIBITORS” (JANSSEN PHARMACEUTICA NV, priority 2021, published 2024).
Read-outs that look alike come from different tables or passages of the source.

Key:
[1] = test system: RNA Polymerase II Serine 5 phosphorylation (Rpb1 CTD, downstream substrate of CDK7) in A549 cells; test: Imaging-based cellular RNA PolII Ser5 phosphorylation assay in A549 cells; type: cell-based, human; settings: Homo sapiens, A549, A549 cells, wild-type CDK7; RNA PolII Ser5 phosphorylation; averaged over all measurements; read-out: CDK7_A549 Wild-type CDK7 (pIC50) (converted)
In short: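 IC50 derived by fitting % control (DMSO high, 10 μM reference low) against concentration, with Hill slope. Readout: high-content imaging of phospho-Ser5 Rpb1 CTD antibody staining in fixed, permeabilized A549 cells exposed to compound 3 h after 20 h culture in 1% FBS DMEM.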

[2] = molecular target: CDK7/cyclinH/MAT1 trimeric complex (Homo sapiens, UniProt P50613); test: In vitro CDK7 assay, potency of irreversible covalent inhibitors (kinact/KI), coupled PK/LDH ADP readout at 340 nm
[3] = test system: RNA Polymerase II Serine 5 phosphorylation in A549 cells overexpressing CDK7-mutant (C312S); test: Imaging-based cellular RNA PolII Ser5 phosphorylation assay in A549 cells overexpressing CDK7-mutant (C312S); type: cell-based, human; settings: Homo sapiens, A549, A549 cells overexpressing CDK7-mutant (C312S); RNA PolII Ser5 phosphorylation; averaged over all measurements; read-out: CDK7_A549 mutant hCDK7(pIC50) (converted)
In short: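 Readout was automated imaging of anti-phospho-Ser5 Rpb1 CTD immunofluorescence, with IC50 fitted to % control versus concentration. Cells were A549 stably overexpressing non-covalently targetable CDK7 C312S alongside wild-type, exposed to compound 3 h at 37 °C. DMSO and 10 μM reference compound served as controls.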

[4] = read-out: CDK7 (20 nM enz.) (kobs/[I], M^−1*s^−1), 20 nM enzyme
[5] = CDK7 (20 nM enz.) (KI, μM), 20 nM enzyme
[6] = read-out: CDK7 (20 nM enz.) (kinact, s^−1), 20 nM enzyme
[7] = read-out: CDK7 (20 nM enz.) (kinact/KI, M^−1*s^−1), 20 nM enzyme
[8] = read-out: CDK7 (kinact/KI, M^−1*s^−1), potency of irreversible covalent inhibitors, 1 mM ATP, room temperature, averaged values over all measurements

CDK7/cyclinH/MAT1 trimeric complex, sequence (P50613 whole entry): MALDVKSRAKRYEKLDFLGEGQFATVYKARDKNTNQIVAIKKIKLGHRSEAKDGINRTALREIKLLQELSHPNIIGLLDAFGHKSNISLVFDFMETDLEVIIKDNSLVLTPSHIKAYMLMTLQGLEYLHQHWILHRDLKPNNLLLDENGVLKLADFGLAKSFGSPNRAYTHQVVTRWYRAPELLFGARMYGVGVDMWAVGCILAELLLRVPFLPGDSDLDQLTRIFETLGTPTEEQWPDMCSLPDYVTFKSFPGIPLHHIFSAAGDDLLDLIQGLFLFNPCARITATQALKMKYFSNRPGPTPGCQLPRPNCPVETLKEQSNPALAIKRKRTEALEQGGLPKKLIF
CDK7/cyclinH/MAT1 trimeric complex, sequence (P51946 whole entry partner): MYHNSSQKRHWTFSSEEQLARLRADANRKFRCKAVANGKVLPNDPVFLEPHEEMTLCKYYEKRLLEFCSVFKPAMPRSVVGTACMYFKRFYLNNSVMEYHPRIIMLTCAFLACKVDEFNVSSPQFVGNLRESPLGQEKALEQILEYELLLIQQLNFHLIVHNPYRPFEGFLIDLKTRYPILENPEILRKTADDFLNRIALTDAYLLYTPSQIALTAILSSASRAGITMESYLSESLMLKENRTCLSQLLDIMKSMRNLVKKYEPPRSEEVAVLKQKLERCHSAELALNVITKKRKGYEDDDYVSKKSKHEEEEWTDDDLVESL
CDK7/cyclinH/MAT1 trimeric complex, sequence (P51948 whole entry partner): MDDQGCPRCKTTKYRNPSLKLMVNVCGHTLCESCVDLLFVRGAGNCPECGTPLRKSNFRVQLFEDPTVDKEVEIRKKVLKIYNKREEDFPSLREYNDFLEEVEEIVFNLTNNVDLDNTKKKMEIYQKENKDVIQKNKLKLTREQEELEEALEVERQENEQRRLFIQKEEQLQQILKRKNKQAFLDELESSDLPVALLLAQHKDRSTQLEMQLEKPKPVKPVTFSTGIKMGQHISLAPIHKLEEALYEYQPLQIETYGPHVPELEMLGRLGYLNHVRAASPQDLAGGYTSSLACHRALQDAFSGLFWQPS

Row | Compound | IC50 [1] [nM] | kinact/KI [2, 4] [M⁻¹ s⁻¹] | IC50 [3] [nM] | Ki [2, 5] [µM] | kinact [2, 6] [s⁻¹] | kinact/KI [2, 7] [M⁻¹ s⁻¹] | kinact/KI [2, 8] [M⁻¹ s⁻¹] | CDK7 (20 nM enz.) (kobs/[I], M^−1*s^−1) ([2]; 20 nM enzyme) [M⁻¹ s⁻¹] | Ki ([2]; CDK7 (KI(μM)), […], 1 mM ATP, room temperature, averaged values over all measurements) [µM] | kinact ([2]; read-out: CDK7 (kinact, s^−1), kinact = maximal rate of inactivation, 1 mM ATP, room temperature, averaged values over all measurements) [s⁻¹]
1 | C=CC(=O)N1CC(N2CC(c3cc(C#N)c4c(c3)Nc3nccc(C5CCOCC5)c3[C@H](C)O4)C2)C1 (single isomer, unassigned) [Compound 291] | 1230 | 26.5 | > 10000 | – | – | – | – | – | – | –
2 | C=CC(=O)Nc1ccc(CCc2ccc3c(c2)Nc2nccc(N4CCOCC4)c2CO3)cn1 [Compound 65] | 67.6 | 1160 | 8710 | – | – | – | – | – | – | –
3 | C=CC(=O)N1CC(N2CCC(c3cc4c(c(C)n3)OCc3c(N5CCOCC5)ccnc3N4)N(C)CC2)C1 (stereo not shown) [Compound 367] | 75.9 | – | 10500 | 0.0482 | 3.37e-05 | 698 | – | – | – | –
4 | C=CC(=O)N1CC[C@@H](N2CC(c3cc4c(c(C5CC5)n3)OCc3c(N5CCOCC5)ccnc3N4)C2)C1 (single isomer, unassigned) [Compound 323] | 83.2 | – | 7940 | 0.0217 | 6.41e-05 | 2950 | – | – | – | –
5 | C=CC(=O)Nc1ccc(-c2cc3c(cn2)OCc2c(N4CCOCC4)ccnc2N3)cc1 [Compound 160] | 64.6 | – | > 10000 | 0.0393 | 6.88e-05 | 1750 | – | – | – | –
6 | C=CC(=O)N1CC(N2CCC(c3cc4c(cc3Cl)OCc3c(N5CCOCC5)ccnc3N4)CC2)C1 [Compound 23] | 120 | – | > 10000 | – | – | – | 455 | – | – | –
7 | CC#CC(=O)N1CCC(N2CC(c3cc4c(c(C#N)n3)O[C@H](C)c3c(C5CCOCC5)ccnc3N4)C2)CC1 (single isomer, unassigned) [Compound 517] | 3020 | – | > 10000 | 2.91 | 4.23e-05 | 14.3 | – | – | – | –
8 | C=CC(=O)N1CCC(N2CC(c3cc4c(c(CCC)n3)OCc3c(N5CCOCC5)ccnc3N4)C2)CC1 [Compound 348] | 47.9 | – | 3090 | 0.0543 | 5.99e-05 | 1100 | – | – | – | –
9 | C=CC(=O)N1CC(N2CC(c3cc4c(c(CCC)n3)OCc3c(N5CCOCC5)ccnc3N4)C2)C1 [Compound 350] | 81.3 | – | 10000 | 0.025 | 4.4e-05 | 1760 | – | – | – | –
10 | C=CC(=O)N1CC[C@H](N2CC(c3cc4c(c(C(F)(F)F)n3)OCc3c(-c5cnn(C)c5)ccnc3N4)C2)C1 (single isomer, unassigned) [Compound 497] | 138 | – | > 10000 | 0.0437 | 5.55e-05 | 1270 | – | – | – | –
11 | C=CC(=O)N1CC(N2CCC(c3cc(Cl)c4c(c3)Nc3nccc(N5CCS(=O)(=O)CC5)c3CO4)CC2)C1 [Compound 103] | 126 | – | > 10000 | 0.0424 | 8.56e-05 | 2020 | – | – | – | –
12 | CC#CC(=O)N1CCC(N2CC(c3cc4c(c(C)n3)OCc3c(N5CCOCC5)ccnc3N4)C2)CC1 [Compound 313] | 77.6 | – | 5370 | 0.0471 | 2.02e-05 | 427 | – | – | – | –
13 | C=CC(=O)N1CC[C@H](N2CC(c3cc4c(c(C)n3)OCc3c(-c5cnn(C)c5)ccnc3N4)C2)[C@@H](F)C1 (mixture of isomers) [Compound 212] | 398 | – | > 10000 | 0.2 | 2.94e-05 | 147 | – | – | – | –
14 | CC#CC(=O)N1CCC(N2CCN(c3cc4c(c(C)n3)OCc3c(N5CCOCC5)ccnc3N4)CC2)CC1 [Compound 393] | 105 | – | > 10000 | 0.0477 | 2.18e-05 | 457 | – | – | – | –
15 | C=CC(=O)N1CCC(N2CCC(c3cc(C)c4c(c3)Nc3nccc(N5CCOCC5)c3CO4)CC2)CC1 [Compound 79] | 37.2 | 766 | 5890 | – | – | – | – | – | – | –
16 | C=CC(=O)N1CC(N2CCC(c3ccc4c(c3)Nc3nccc(-c5cnn(C)c5)c3[C@@H](C)O4)CC2)C1 (single isomer, unassigned) [Compound 127] | 27.5 | 1420 | 8320 | – | – | – | – | – | – | –
17 | C=CC(=O)N=S1(=O)CCN(c2ccnc3c2COc2ccc(C4CCN(C5CN(C(=O)C=C)C5)CC4)cc2N3)CC1 [Compound 94] | > 10000 | – | > 10000 | 3.37 | 3.79e-05 | 11.2 | – | – | – | –

Row | Compound | IC50 [1] [nM] | kinact/KI [2, 4] [M⁻¹ s⁻¹] | IC50 [3] [nM] | Ki [2, 5] [µM] | kinact [2, 6] [s⁻¹] | kinact/KI [2, 7] [M⁻¹ s⁻¹] | kinact/KI [2, 8] [M⁻¹ s⁻¹] | CDK7 (20 nM enz.) (kobs/[I], M^−1*s^−1) ([2]; 20 nM enzyme) [M⁻¹ s⁻¹] | Ki ([2]; CDK7 (KI(μM)), […], 1 mM ATP, room temperature, averaged values over all measurements) [µM] | kinact ([2]; read-out: CDK7 (kinact, s^−1), kinact = maximal rate of inactivation, 1 mM ATP, room temperature, averaged values over all measurements) [s⁻¹]
18 | C=CC(=O)N1CC(N2CC(c3cc4c(c(C(F)(F)F)n3)OCc3c(N5CCOCC5)ccnc3N4)C2)C1 [Compound 235] | 70.8 | – | 9550 | – | – | – | – | 962.5 | – | –
19 | C#CCCN(C)C/C=C/C(=O)N1CC(N2CCC(c3ccc4c(c3)Nc3nccc(N5CCOCC5)c3C(C)O4)CC2)C1 (racemic) [Compound 143] | 123 | – | > 10000 | 0.0404 | 6.96e-05 | 1720 | – | – | – | –
20 | CC#CC(=O)N1CC(N2CC(c3cc(C#N)c4c(c3)Nc3nccc(C5CCOCC5)c3[C@H](C)O4)C2)C1 (single isomer, unassigned) [Compound 486] | 5620 | – | > 10000 | – | – | 1.32 | – | – | – | –
21 | C=CC(=O)N1CCC(N2CC(c3cc(Cl)c4c(c3C)Nc3nccc(C5CCOCC5)c3CO4)C2)CC1 [Compound 86] | 1580 | – | > 10000 | 0.397 | 2.5e-05 | 63.1 | – | – | – | –
22 | C=CC(=O)N1CC(N2CCC(c3ccc4c(c3)Nc3ncc(F)c(N5CCOCC5)c3CO4)CC2)C1 [Compound 151] | 34.7 | – | > 10000 | 0.0205 | 4.67e-05 | 2280 | – | – | – | –
23 | C#Cc1cc2c(cc1C1CCN(C3CN(C(=O)C=C)C3)CC1)Nc1nccc(N3CCOCC3)c1CO2 [Compound 175] | 240 | – | > 10000 | 0.0695 | 4.03e-05 | 580 | – | – | – | –
24 | C=CC(=O)N1CC(N2CC(c3ccc4c(c3)Nc3nccc(-c5cnn(C)c5)c3C(C)O4)C2)C1 (stereo not shown) [Compound 197] | 123 | – | > 10000 | 0.134 | 7.96e-05 | 596 | – | – | – | –
25 | C=CC(=O)N1CC[C@H](N2CCC(c3cc(C)c4c(c3)Nc3nccc(-c5cnn(C)c5)c3CO4)CC2)C1 (single isomer, unassigned) [Compound 138] | 28.8 | 1330 | ~3720 | – | – | – | – | – | – | –
26 | CC#CC(=O)N1CC(N2CC[C@H](c3cc4c(c(C)n3)O[C@@H](C)c3c(N5CCOCC5)ccnc3N4)N(C)CC2)C1 (single isomer, unassigned) [Compound 528] | 603 | – | > 10000 | 0.0976 | 1.7e-05 | 174 | – | – | – | –
27 | CC#CC(=O)N1CC(N2CCC(c3ccc4c(c3)Nc3nccc(N5CCOCC5)c3CO4)CC2)C1 [Compound 50] | ~178 | – | > 10000 | – | – | – | 1090 | – | 0.132 | 0.000144
28 | C=CC(=O)N1CC[C@H](N2CC(c3cc4c(c(C#N)n3)O[C@H](C)c3c(N5CCOCC5)ccnc3N4)C2)C1 (single isomer, unassigned) [Compound 507] | 110 | 389 | 8130 | – | – | – | – | – | – | –
29 | COC(=O)/C=C/C(=O)N1CC[C@@H](N2CCC(c3cc4c(c(C)n3)OCc3c(-c5cnn(C)c5)ccnc3N4)CC2)C1 (single isomer, unassigned) [Compound 301] | 24 | 2790 | > 10000 | – | – | – | – | – | – | –
30 | C=CC(=O)N1CC[C@@H](N2CC(c3cc4c(c(C)n3)OCc3c(-c5cnn(C)c5)ccnc3N4)C2)C1 (single isomer, unassigned) [Compound 204] | 339 | – | > 10000 | 0.352 | 3.71e-05 | 105 | – | – | – | –
31 | C=CC(=O)N1CC(N2CC(c3cc4c(cn3)O[C@H](C)c3c(-c5cnn(C)c5)ccnc3N4)C2)C1 (single isomer, unassigned) [Compound 295] | 178 | – | ~8320 | 0.0688 | 5.48e-05 | 796 | – | – | – | –
32 | C=CC(=O)N1CC(n2cc(-c3cc(C#N)c4c(c3)Nc3nccc(N5CCOCC5)c3CO4)cn2)C1 [Compound 285] | 19.5 | 964 | 1860 | – | – | – | – | – | – | –
33 | C=CC(=O)N1CCC(N2CCN(c3cc4c(c(C)n3)OCc3c(N5CCOCC5)ccnc3N4)CC2)CC1 [Compound 389] | 141 | – | > 10000 | 0.0199 | 2.13e-05 | 1070 | – | – | – | –
34 | CC#CC(=O)N1CC[C@H](N2CC(c3cc4c(c(C5CC5)n3)OCc3c(N5CCOCC5)ccnc3N4)C2)C1 (single isomer, unassigned) [Compound 418] | 257 | – | 8710 | 0.0692 | 2.87e-05 | 415 | – | – | – | –
